According to patent US10449247B2, “Compositions and methods for enhancing immune response” (priority 2007, dated 2019):

Tests used:
Format in all cases: cell-based, Human
[1] = test system: THP-1 cells; assay: Vybrant phagocytosis assay (fluorescein-labeled E. coli particles), THP-1 cells
Description: Human THP-1 monocytoid cells (acute monocytic leukemia) were obtained from American Type Tissue Collection (#TIB-202). Cells were cultured in RPMI-1640 medium supplemented with 2 mM L-glutamine, 10 mM HEPES, 1.0 mM sodium pyruvate, 10% fetal bovine serum and antibiotics. Primary peripheral blood monocytes (PBM) were isolated from mixed peripheral blood mononuclear cell preparations using the Miltenyi Biotec MACs magnetic separation system. PBM were cultured in the same medium as THP-1 cells, with the exception that 20% fetal bovine serum was used. Cells were seeded (1×10^5 cells/well, 96-well culture plates) 24 h prior to treatment with OxBC, PMA (25 ng/ml) and/or LPS (15 ng/ml) as described below. Cells incubated in an equivalent percentage (v/v) of DMSO alone served as controls.
Phagocytosis in monocyte cultures was evaluated using a Vybrant phagocytosis assay kit (Invitrogen, #V6694) based upon the ingestion of fluorescein-labeled E. coli (strain K12) bacterial particles. Briefly, treated cells were incubated at 37° C. for 5 h with a 1000 suspension of fluorescent bioparticles in Hank's buffered salt solution. […] The trypan blue solution was removed and the number of ingested particles determined using a fluorescence microplate reader (480 nm excitation, 520 nm emission). […] After recovery, the cells were treated with LPS for an 24 h before phagocytosis was measured.

[2] = test system: THP-1 cells; assay: Cytokine release ELISA, naive THP-1 cells treated directly
Description: Human THP-1 monocytoid cells (acute monocytic leukemia) were obtained from American Type Tissue Collection (#TIB-202). Cells were cultured in RPMI-1640 medium supplemented with 2 mM L-glutamine, 10 mM HEPES, 1.0 mM sodium pyruvate, 10% fetal bovine serum and antibiotics. Peripheral blood monocytes (PBM) and lymphocytes (PBL) were isolated from PBMC by positive and negative selection, respectively, using the Miltenyi Biotec MACs magnetic separation system. PBM were cultured in RPMI-1640 medium supplemented with 2 mM L-glutamine, 10 mM HEPES, 1.0 mM sodium pyruvate, 20% fetal bovine serum and antibiotics. PBL were seeded in the same medium with the exception that 10% FBS was used. Specific cell densities and experimental conditions are described below.
Cells were evaluated in both naïve challenge and LPS challenge models. For naive studies, cells were exposed directly to OxBC for varying time frames and cytokine expression evaluated in conditioned medium (CM) by ELISA. For LPS challenge, cells were first incubated with OxBC for the indicated time, at which point OxBC was removed and replaced with fresh medium lacking the compound. At different time points post-treatment, cells were then challenged with LPS (15 ng/ml) for 24 h prior to cytokine levels in CM being evaluated by ELISA. In a variation of the LPS challenge scenario, primary PBM were first challenged with LPS for 24 h. After this initial stimulation, LPS-treated cells were then exposed to OxBC for 24 h before CM was harvested for ELISA analysis.
Analysis of cytokine levels in CM was performed using Endogen Human ELISA kits (Pierce) according to manufacturer's instructions. CM was prepared by centrifugation to remove cellular debris and either used neat, diluted with complete medium or concentrated using Nanosep 3K centrifugal concentrators (Pall) to ensure that cytokine levels fell within the linear ranges of each assay. Where appropriate, samples were stored at −80° C. and thawed by gradual equilibration at room temperature prior to use. Briefly, 50 μl samples were added to each well of a microplate to which antibody specific to the cytokine of interest had been adsorbed and incubated at room temperature for 1-3 h. Plates were washed three times to remove nonspecifically bound material and incubated for an additional 1-3 h with biotinylated antibody specific to the cytokine of interest. After washing, plates were incubated for 30 min with steptavidin-horse radish peroxidase reagent followed by an additional washing cycle. Washed plates were incubated for 30 min with 3,3′,5,5′-tetramethylbenzidine (TMB) substrate, the reaction stopped and absorbance measured at 450 nm (550 nm reference). Reference curves were generated for each cytokine using the supplied recombinant standard.
A primary proof-of-principle study was conducted in THP-1 cells that were untreated (mock) or treated for 24 h with OxBC, PMA (25 ng/ml) and vehicle (DMSO). […] Moreover, no change in MCP-1 and IL-8 expression was detected at lower concentrations of the compound. Both MCP-1 and IL-8 function as cytokines to recruit immune cells to sites of infection or injury. For example, IL-8 primarily recruits neutrophils within an inflammatory response and is also termed neutrophils recruitment factor (NRF), while MCP-1 primarily functions to recruit other monocytes. Expression of either cytokine by monocytes/macrophages is induced in response to detection of antigen or phagocytosis of an invading pathogen.

[3] = test system: THP-1 cells; assay: FACS analysis of surface receptor expression in THP-1 cells (no LPS)
Description: Human THP-1 monocytoid cells (acute monocytic leukemia) were obtained from American Type Tissue Collection (#TIB-202). Cells were cultured in RPMI-1640 medium supplemented with 2 mM L-glutamine, 10 mM HEPES, 1.0 mM sodium pyruvate, 10% fetal bovine serum and antibiotics. Cells were seeded (5×10^5 cells/well, 6-well culture plates) 24 h prior to treatment with OxBC and harvested for analysis according to three protocols: 1) Cells were treated with OxBC (2.5, 7.5 or 12.5 μM) for 24 h and than evaluated for surface receptor expression; 2) Cells were treated with OxBC (0.1, 0.5 or 1.0 μM) for 24 h, at which point fresh media lacking OxBC was supplied for 48 h prior to analysis, and 3) Cells were treated with OxBC (0.1, 0.5 or 1.0 μM) for 24 h, at which point fresh media lacking OxBC was supplied for 5 days. Treated cells were then stimulated with LPS (15 ng/ml) for 24 h prior to analysis. Cells incubated in an equivalent percentage (v/v) of DMSO alone served as controls. For studies in which LPS stimulation was not employed, PMA 25 ng/ml) was used as positive stimulator of monocytes differentiation.
Phycoerythrin (PE)-labeled primary antibodies against human CD11b, CD14, CD16, CD36, CD51/CD61, HLA (broad isoforms), HLA-B7, CD86, CD40, CD40L and CD3 were obtained from AbCam. Receptor expression was evaluated using direct immunofluorescence labeling and flow cytometry analysis. Briefly, triplicate cell aliquots in cold buffer (PBS containing 10% FBS and 1% sodium azide) were incubated with primary antibody (10-20 μl) for 45 min at room temperature under low light conditions. Cells were washed three times and resuspended in 500 μl of buffer for analysis using a FacsAria cell sorter. Unlabeled cells and cells labeled with antibody alone served as controls.

[4] = THP-1, 24 h, PMA 25 ng/ml, proof-of-principle

CCCCCCCCCCCCCC(=O)O[C@@H]1[C@@H](C)[C@@]2(O)[C@@H](C=C(CO)C[C@]3(O)C(=O)C(C)=C[C@@H]23)[C@@H]2C(C)(C)[C@]12OC(C)=O [PMA, Phorbol myristate acetate]
phagocytic activity ([1]; THP-1, PMA 24 h, 72 h recovery): large increase in phagocytic activity | increase in phagocytic activity relative to control cultures ([1]; naive THP-1, PMA 25 ng/ml 24 h): 12.94±2.05 fold | IFNγ [2, 4]: 10.0 ± 1.3 pg/mL | IL-1β [2, 4]: 73.4 ± 2.8 pg/mL | IL-8 [2, 4]: 637.2 ± 18.6 pg/mL | IL-12 [2, 4]: 8.0 ± 6.5 pg/mL | MCP-1 [2, 4]: 654.9 ± 60.2 pg/mL | TNF [2, 4]: 110.1 ± 1.7 pg/mL | IFNγ ([2]; THP-1, PMA 25 ng/ml, Table 3): 24.9 pg/mL | IL-1β ([2]; THP-1, PMA 25 ng/ml, Table 3): 62.5 pg/mL | IL-6 ([2]; THP-1, PMA 25 ng/ml, Table 3): 20.3 pg/mL | IL-8 ([2]; THP-1, PMA 25 ng/ml, Table 3): 712.4 pg/mL | IL-12 ([2]; THP-1, PMA 25 ng/ml, Table 3): 20.9 pg/mL | MCP-1 ([2]; THP-1, PMA 25 ng/ml, Table 3): 574.8 pg/mL | TNF ([2]; THP-1, PMA 25 ng/ml, Table 3): 108.5 pg/mL | CD11b expression, fold change relative to vehicle controls ([3]; THP-1, 24 h, PMA 25 ng/ml): 0.97 ± 0.02 fold | CD14 expression, fold change relative to vehicle controls ([3]; THP-1, 24 h, PMA 25 ng/ml): 1.91 ± 0.06 fold | CD16 expression, fold change relative to vehicle controls ([3]; THP-1, 24 h, PMA 25 ng/ml): 4.77 ± 0.31 fold | CD36 expression, fold change relative to vehicle controls ([3]; THP-1, 24 h, PMA 25 ng/ml): 1.03 ± 0.01 fold | CD51 expression, fold change relative to vehicle controls ([3]; THP-1, 24 h, PMA 25 ng/ml): 5.07 ± 0.29 fold | B7-2 (CD86) expression, fold change relative to vehicle controls ([3]; THP-1, PMA 25 ng/ml): 2.04 ± 0.29 fold | CD11b receptor density (fluorescence intensity), fold change relative to vehicle controls ([3]; THP-1, PMA 25 ng/ml): 1.97 ± 0.01 fold | CD36 receptor density (fluorescence intensity), fold change relative to vehicle controls ([3]; THP-1, PMA 25 ng/ml): 4.57 ± 0.03 fold | CD40L expression, fold change relative to vehicle controls ([3]; THP-1, PMA 25 ng/ml): 1.4 ± 0.10 fold | CD40 counts, fold change relative to vehicle controls ([3]; THP-1, PMA 25 ng/ml): 0.98 ± 0.01 fold | CD40 intensity, fold change relative to vehicle controls ([3]; THP-1, PMA 25 ng/ml): 1.31 ± 0.1 fold | HLA (DQ/DR/DP) expression, fold change relative to vehicle controls ([3]; THP-1, PMA 25 ng/ml): 1.05 ± 0.01 fold | increase of densities of CD11b and CD36 ([3]; THP-1, PMA 25 ng/ml): 2 to 4 fold
